Columns and labels:
DMM mice [1] = assay: DMM drug treatment study: OARSI scoring and histomorphometry of knee cartilage; format: in vivo, mouse
Description: Drug treatment studies: In twelve-week old male wild type C57BL/6 mice that received DMM surgeries, vehicle (PBS), paroxetine (5 mg/kg/day), fluoxetine (5 mg/kg/day), gallein (10 mg/kg/day) or indomethacin (2.5 mg/kg/day) were administered daily by ip injection. Drug treatment was initiated 8 weeks following DMM to determine the role of GRK2 signaling in the progression of OA.
Twelve-week-old male mice were administered DMM surgery to the right knee and sham surgery to the left knee as described (S. S. Glasson, Osteoarthritis. Cartilage. 15, 1061-1069 (2007)). Briefly, mice were anesthetized via intraperitoneal injection of ketamine (60 mg/kg) and xylazine (4 mg/kg), and a 5-mm-long incision was made on the medial side of the knee. Under a dissecting microscope, an incision was made along the medial side of the patellar tendon, opening the joint space. Using a #11 scalpel, the medial meniscotibial ligament (MMTL) was transected, enabling the medial meniscus to move freely. A similar skin incision was made in sham knees, but the joint structure was not disturbed. For the sham group, both right and left knees had sham surgeries. After surgery, 4-0 silk sutures were used to close the incision using an interrupted pattern. Mice were provided analgesia via intraperitoneal injection of buprenorphine (0.5 mg/kg) every 12 hours for 72 hours, and sutures were removed after 7 days. Mice were sacrificed, at the indicated time points, by anesthesia followed with whole animal perfusion using 10% NBF, knees were harvested and fixed for 7 days in 10% NBF, decalcified for 7 days in 10% w/v EDTA, embedded in paraffin, and 10-μm sections were cut and mounted for Safranin-O/Fast Green or IF staining.
Semi-quantitative histopathologic grading was performed using a derivative of the Chambers' scoring system that has been established by the OARSI histopathology initiative as the standard method for grading of mouse cartilage degeneration. Based on this system, cartilage grading was carried out using Safranin-O/Fast Green-stained midsagittal sections. Three sections from representative levels (50 μm apart) of the medial compartment of the joint were selected for each sample and, which were evaluated in a randomized, blinded manner by 3 laboratory members. The 3 scores were averaged to calculate the section score, and the sample score was then calculated by averaging the scores obtained from the three levels. Grading was performed using the following scale: 0=normal cartilage, 0.5=loss of proteoglycan stain without cartilage damage, 1=mild superficial fibrillation, 2=fibrillation and/or clefting extending below the superficial zone, 3=mild (<25%) loss of cartilage, 4=moderate (25-50%) loss of cartilage, 5=severe (50-75%) loss of uncalcified cartilage, and 6=eburnation with >75% loss of cartilage. Grading was performed by three blinded observers (F.K., M.J.Z., and E.R.S.). Observer agreement was evaluated in pairs via calculation of a weighted kappa coefficient, using Fleiss-Cohen weights, as we have described. The F.K. versus M.J.Z. coefficient was 0.92, the F.K. versus E.R.S. coefficient was 0.94, and the M.J.Z. versus E.R.S coefficient was 0.89, all indicative of strong agreement between the observers.
Using Safranin-O/Fast Green-stained sections, the OsteoMetrics system was used to quantify the above parameters on three sections from representative levels (50 μm apart) of the medial compartment of the joint for each sample. Live images of the center of the knee joint were collected through an Olympus microscope (10× objective) outfitted with a camera, a stylus was used to trace the regions of interest (ROIs). A blinded observer quantified uncalcified articular cartilage area, total chondrocyte number and matrix-producing chondrocyte number using the built-in area calculation algorithms and quantification functions of the OsteoMeasure® system. […]

DMM mice [2] = assay: Anterior femoral synovial membrane thickness in DMM mice; format: in vivo, mouse; conditions: daily ip week 8 to 12, versus vehicle
Description: Drug treatment studies: In twelve-week old male wild type C57BL/6 mice that received DMM surgeries, vehicle (PBS), paroxetine (5 mg/kg/day), fluoxetine (5 mg/kg/day), gallein (10 mg/kg/day) or indomethacin (2.5 mg/kg/day) were administered daily by ip injection. Drug treatment was initiated 8 weeks following DMM to determine the role of GRK2 signaling in the progression of OA. Using Safranin-O/Fast Green-stained sections, the OsteoMetrics system was used to quantify the above parameters on three sections from representative levels (50 μm apart) of the medial compartment of the joint for each sample. Live images of the center of the knee joint were collected through an Olympus microscope (10× objective) outfitted with a camera, a stylus was used to trace the regions of interest (ROIs). A blinded observer quantified uncalcified articular cartilage area, total chondrocyte number and matrix-producing chondrocyte number using the built-in area calculation algorithms and quantification functions of the OsteoMeasure® system. […] The calcified cartilage was determined with a line drawn along the tide mark, which is the naturally occurring line separating the calcified and uncalcified regions of the articular cartilage. A second line was drawn at the chondro-osseous junction where the calcified cartilage meets the subchondral bone. The uncalcified cartilage area was determined by subtracting the calcified cartilage area from the total area of cartilage. Total chondrocyte number and matrix-producing chondrocyte number were counted within the uncalcified cartilage region using count functions within the histomorphometry system. Matrix-producing chondrocytes were counted based on the region of Safranin-O staining within the extracellular matrix surrounding the articular chondrocyte, indicating anabolic signaling to maintain matrix homeostasis. Similarly, the anterior femoral synovial thickness was measured using OsteoMeasure® software. Synovial membrane thickness extending from anterior horn of the medial meniscus to the femur was determined by drawing a line from the inner insertion point on the femur towards the attachment on the meniscus. A second line was drawn from the outer insertion of the femur towards the attachment to the meniscus. The synovial thickness was calculated by dividing total synovial area by synovial perimeter.

[3] = tested on: Gas activity (cAMP content in cartilage); assay: cAMP assay in tibial articular cartilage of drug-treated DMM mice; format: in vivo, mouse; conditions: daily ip week 8 to 12
Description: Drug treatment studies: In twelve-week old male wild type C57BL/6 mice that received DMM surgeries, vehicle (PBS), paroxetine (5 mg/kg/day), fluoxetine (5 mg/kg/day), gallein (10 mg/kg/day) or indomethacin (2.5 mg/kg/day) were administered daily by ip injection. Drug treatment was initiated 8 weeks following DMM to determine the role of GRK2 signaling in the progression of OA. Short term drug treatment study: To evaluate the acute effect of drug treatments, GRK2^f/f mice received sham or DMM surgery followed by treatment with vehicle, paroxetine, gallein, fluoxetine, or indomethacin with the doses indicated above for 1 week beginning at 8 weeks post DMM. All mice were sacrificed 9 weeks post DMM, 21 weeks of age, for analysis of OA progression. Gas activity was measured by quantifying cAMP content in cartilage pooled from 3 mice. Tibial cartilage was dissected out and snap frozen in liquid Nitrogen. As positive control, tibial cartilage obtained from normal mice was treated with 0.5 mM 3-isobutyl-1-methylxanthine (IBMX) for 30 minutes, followed by 0.1 mM Forskolin for 15 minutes, then snap frozen in liquid Nitrogen. For human cartilage cAMP content, 70 mg frozen cartilage were used. Frozen cartilage was pulverized using 500 μL lysis buffer as we have previously described (H. K. Le Bleu, Anal Biochem, 518, 134-138 (2017)). cAMP content was quantified using the Cyclic AMP XP Assay kit (Cell Signaling, #4339) and following manufacturer's protocol, with 0.5 mM IBMX added to the lysis buffer to prevent phosphodiesterase mediated cAMP degradation during the extraction process. cAMP levels in different groups were normalized to that of sham mice or the vehicle treated human cartilage.

GRK2 = target: T1, GRK2 (Homo sapiens, UniProt P25098); conditions: from cited literature; cited from earlier work
T1 sequence (P25098 1-689): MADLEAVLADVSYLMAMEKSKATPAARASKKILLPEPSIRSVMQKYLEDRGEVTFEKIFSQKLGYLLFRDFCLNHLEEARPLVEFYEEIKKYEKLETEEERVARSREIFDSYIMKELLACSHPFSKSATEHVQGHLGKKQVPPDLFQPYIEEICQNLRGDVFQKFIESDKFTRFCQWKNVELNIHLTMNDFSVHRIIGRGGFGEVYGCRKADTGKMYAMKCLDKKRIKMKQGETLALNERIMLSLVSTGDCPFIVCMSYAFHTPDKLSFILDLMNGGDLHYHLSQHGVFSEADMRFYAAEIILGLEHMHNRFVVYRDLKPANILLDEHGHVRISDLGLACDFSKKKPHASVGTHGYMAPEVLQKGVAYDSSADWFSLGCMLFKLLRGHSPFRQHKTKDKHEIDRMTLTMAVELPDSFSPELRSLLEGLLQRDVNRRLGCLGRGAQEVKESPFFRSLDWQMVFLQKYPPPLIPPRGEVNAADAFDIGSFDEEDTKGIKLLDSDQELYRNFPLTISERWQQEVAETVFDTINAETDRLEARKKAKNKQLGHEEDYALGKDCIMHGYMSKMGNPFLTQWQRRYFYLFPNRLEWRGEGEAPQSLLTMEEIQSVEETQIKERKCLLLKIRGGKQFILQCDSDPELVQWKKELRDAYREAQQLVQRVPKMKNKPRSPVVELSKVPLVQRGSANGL

DMM mice [4] = assay: DMM mice treated with PTH, paroxetine or their combination: histology and histomorphometry (Example 1); format: in vivo, mouse; conditions: treatment week 8 to 12, PTH sc 40 μg/kg/day, paroxetine ip 5 mg/kg/day
Description: Methods: Destabilization of the medial meniscus (DMM) surgery was used to simulate clinical post-traumatic OA. First, we determined the role of GRK2 inhibition in PTH1R Gas-cAMP signaling: 12 week old male mice underwent sham or DMM surgery and were treated with either vehicle or the GRK2 inhibitor “paroxetine” (ip, 5 mg/kg/day), treatment was initiated at the time of surgery and continued daily until 8 weeks. Knees were harvested and articular cartilage was obtained for ex vivo analysis of Gas activity. In ex vivo culture, cartilage explants were treated with PTH as an agonist to stimulate PTH1R-Ga-cAMP signaling. Thirty minutes following PTH stimulation, cartilage tissue was homogenized and cAMP levels were measured. Then, we determined the role of GRK2 inhibition in recovering or even potentiating PTH1R signaling in OA cartilage: 12 week old male mice underwent sham or DMM surgery, and received treatment with vehicle, PTH (sc, 40 μg/kg/day) alone, the GRK2 inhibitor “paroxetine3” (ip, 5 mg/kg/day) alone, or their combination. Treatment was initiated at week 8 following DMM surgery, where OA is in progress, and continued until week 12 where mice were sacrificed. Knees were harvested, paraffin embedded, sectioned and stained with safranin-o and fast green for histological evaluation, OARSI scoring, and histomorphometric analysis. Results are expressed as mean values+s.e.m. with an N=5-8 mice per experimental group. Statistical analyses were performed using one ANVOA with P<0.05 representing statistical significance.

DMM mice [5] = assay: Paroxetine combined with PTH in DMM mice: Micro-CT of subchondral bone; format: in vivo, mouse; conditions: daily from 8 weeks, harvest 12 weeks after surgery
[6] = daily ip week 8 to 12, versus vehicle

Compound | cartilage degeneration (Safranin-O and Fast Green histology) (DMM mice [1]; daily ip week 8 to 12) | chondro-protective and matrix-regenerative effects (overall) (DMM mice [1]; daily ip week 8 to 12) | synovial membrane thickness (DMM mice [2]) | total number of chondrocytes (DMM mice [1]; daily ip week 8 to 12) | uncalcified cartilage area (DMM mice [1]; daily ip week 8 to 12) | OARSI score (DMM mice [1]; [6]) | number of matrix producing chondrocytes (DMM mice [1]; [6]) | cAMP levels in the articular cartilage [3] | GRK2 inhibitory effect (GRK2) | chondrocyte number (DMM mice [4]) | number of matrix-producing (anabolic) chondrocytes (DMM mice [4]) | uncalcified cartilage area (DMM mice [4]) | effect on the subchondral bone of OA mice (plate thickness, BMD, BV/TV, Tb.Th, osteophytes) (DMM mice [5])
COc1ccc2c(c1)c(CC(=O)O)c(C)n2C(=O)c1ccc(Cl)cc1 [indomethacin] | progressive cartilage degeneration | no chondro-protective or matrix-regenerative effects | significantly reduced | – | – | – | – | – | – | – | – | – | –
CNCCC(Oc1ccc(C(F)(F)F)cc1)c1ccccc1 (stereo not shown) [fluoxetine] | progressive cartilage degeneration | lacks chondro-protective and matrix-regenerative effects | attenuated | only mild preservation | no preservation | high | low | not different from vehicle treated mice | lacks any GRK2-inhibitory effects | – | – | – | –
parathyroid hormone [PTH] | – | – | – | – | – | – | – | – | – | increased | particular increase | increased | deleterious effects

— US20230404989A1, “GRK2 INHIBITION BY PAROXETINE AMELIORATES OSTEOARTHRITIS” (THE PENN STATE RESEARCH FOUNDATION, priority 2020, published 2023)
